Measured values from publication PMC9201908, “Expansion of the Strigolactone Profluorescent Probes Repertory: The Right Probe for the Right Application” (Frontiers in Plant Science, 2022).

What was measured:
[1] = tested on: rms1-10 pea mutant plants; experiment: Pea shoot-branching assay by direct application on the bud, rms1-10; assay type: in vivo, Pisum sativum; conditions: for Length of bud at node 3 /branch: direct application, rms1-10, 10 days after treatment, mean per replicate
Procedure: Pea (Pisum sativum) branching mutant plants used in this study were described previously (Rameau et al., [1997]). The SL biosynthesis rms1-10 (M3T-884) and SL response rms3-4 (M2T-30) mutants were obtained from the dwarf cv. Térèse. Plants were grown in a greenhouse under long days as described by Braun et al. ([2012]).
The compounds to be tested were applied directly to the axillary bud with a micropipette as 10 μL of a solution containing 0.1% of acetone with 2% of polyethylene glycol 1,450, 50% of ethanol, and 0.4% of DMSO. The control 0 is the treatment with 0.1% of DMSO without compound. A total of 24 plants were sown per treatment in trays (2 repetitions of 12 plants). The treatment was done 8 days after sowing, on the axillary bud at node 3. The branches at nodes 1–2 were removed to encourage the outgrowth of axillary buds at nodes above. Nodes were numbered acropetally from the first scale leaf as node 1 and cotyledonary node as node 0. Bud growth at node 3 was measured 10 days after treatment. Plants with damaged main shoot apex or showing a dead white treated bud were discarded from the analysis. The SL-deficient rms1-10 pea mutant was used for all experiments and WT Térèse as control. SL-perceived rms3-4 pea mutant was used to test that when bioactive, the analog acts via RMS3, and it was also used to check the putative toxicity of probes.

[2] = Stability of CoumarinAc and DiFMUAc (DMSO, PBS); assay type: physicochemical; conditions: in PBS and in DMSO (20°C), in comparison to CoumarinAc
Procedure: Dimethyl sulfoxide (DMSO) solution of the compound to be tested (1 mM) was incubated at 20°C in the HPLC vials. (±)-1-Indanol [Alfa Aesar, purity >97.5% (GC); 10 mM] was used as the internal standard. The samples were subjected to reverse-phase-ultra-performance liquid chromatography (RP-UPLC)-MS analyses by means of UPLC system equipped with a photo diode array (PDA) and a triple quadrupole detector (TQD) mass spectrometer (Acquity UPLC-TQD, Waters). RP-UPLC (HSS C18 column, 1.8 μm, 2.1 × 50 mm) with 0.1% (v/v) of formic acid in CH3CN and 0.1% (v/v) of formic acid in water (aq. FA, 0.1%, v/v, pH 2.8) were used as eluents [10% CH3CN, followed by linear gradient from 10 to 100% of CH3CN (4 min)] at a flow rate of 0.6 ml min^−1. The detection was done by PDA and with the TQD mass spectrometer operated in electrospray ionization-positive mode at 3.2 kV capillary voltage. To maximize the signal, the cone voltage and collision energy were optimized to 20 V and 12 eV, respectively. The collision gas used was argon at a pressure maintained near 4.5 10^−3 mBar. The relative quantity of the remaining (non-degraded) product was determined by integration comparison with the internal standard.

## CC(=O)Oc1c(F)cc2c(C)cc(=O)oc2c1F [DiFMUAc]
[1]; 10 nM
  Length of bud at node 3 /branch: 23.71 mm
[1]; 100 nM
  Length of bud at node 3 /branch: 19.75 mm
[1]; 1,000 nM
  Length of bud at node 3 /branch: 22.17 mm
[1]; rms1-10, direct application, 100 nM
  Effect on axillary bud: significant effect
[1]; rms1-10, direct application, result in words
  Bioactivity on shoot branching inhibition (bud development): no effect
[2]
  Stability: poorly stable
